Assay [1] relates to HT-29 human colon adenocarcinoma cells. The assay is described as follows: Inhibition of proliferation of HT-29 cells (MTT assay). Format: cell-based. The conditions noted are these: read-out: Inhibition activity against proliferation of HT-29 cells (GI50). On the procedure:
HT-29 human colon adenocarcinoma cells were cultured in DMEM [10% FBS, 1% penicillin/streptomycin] at 37 °C in the presence of 5% CO2. The cultured HT-29 cells were harvested with 0.05% trypsin-0.02% EDTA and seeded in a 96-well plate at 5 x 10^3 cells per well.
3-(4,5-Dimethylthiazol-2-yl)-2,5-diphenyltetrazolium bromide (MTT) assay (CellTiter 96 Assay, Promega) was employed to measure cell viability. After adding 15 µL of a dye per well and culturing for 2 hours, the cells were treated with 100 µL of a stop solution and absorbance was measured 24 hours later. The test compound was treated a day after plating. The test compound had been sequentially diluted at 12 concentrations from a 10 mM stock solution using sterilized dimethylsulfoxide (DMSO) and treated with an amount of 0.5 µL. Absorbance at 590 nm was recorded using En Vision 2103, and GI50 value was calculated using GraphPad Prism 4.0 software.
(In general: Formazan colour is commonly taken as a measure of viable cells.)

Assay [2] has as its target T1, FAK (Homo sapiens, UniProt Q05397).
T1 construct: purchased Cell Signaling 7796
The assay is described as follows: Measurement of FAK kinase activity (ULight-LANCE assay). The class given is biochemical. The conditions noted are these: 10 µM ATP, 3 nM FAK, TR-FRET; read-out: FAK inhibition activity (IC50). On the procedure:
Full sequence FAK was purchased from Cell Signaling (Catalog No.: 7796). ULight-poly GT (PerkinElmer #TRF0100-D), Eu-anti-phospho-Tyr (PT66) ((PerkinElmer #AD0068) and Lance detection buffer (PerkinElmer #CR-97-100) were purchased from PerkinElmer. The kinase solution (50 mM Tris-HCl pH 7.5, 10 mM MgCl2, 1 mM EGTA, 2 mM DTT, 0.01% Tween-20) was adjusted to a final concentration of 3 nM by adding FAK diluted to 6 nM (2X) in white 384 OptiPlate, and added with an amount of 5 µL. 4X ULight-poly GT was adjusted to a final concentration of 100 nM. ATP (Sigma #A2383) was adjusted to a final concentration of 10 µM and in 2.5 µL aliquots. The test compound was sequentially diluted at 12 concentrations and treated with an amount of 0.5 µL. After shaking well and allowing to react at room temperature for 60 minutes, 5 µL of ethylenediaminetetraacetic acid (EDTA, final concentration 40 mM) diluted in Lance detection buffer (Lance detection buffer) was added and the mixture was left at room temperature for 5 minutes to stop the reaction. After adding 4X Eu-anti-phospho-Tyr (PT66) phosphorylated antibody diluted to a final concentration of 2 nM in detection buffer with an amount of 5 µL, and reaction was performed at room temperature for 60 minutes. After adjusting to detect time-resolved fluorescence energy transfer (TR-FRET) at excitation wavelength 320 nm and emission wavelength 665 nm, signals were detected using EnVision Multilabel Reader.
A general note: In TR-FRET formats the signal depends on donor and acceptor labels being close together.

Assay [3] deals with prostate cancer PC-3, breast cancer BT-474, colon LoVo, lung cancer NCI-H460, glioblastoma U-87 MG and pancreatic cancer BxPC-3 cells. The settings on record: 25-100 mg/kg p.o., human tumor xenografts; cited from earlier work. In general terms: In xenograft studies the graft and the host belong to different species.
Assay [4] has as its system tumor. The settings on record: concurrent administration of TAE226 and docetaxel, animal model, P values < 0.01; cited from earlier work.

This is an account of results in patent EP2491043B1, “2,7-SUBSTITUTED THIENO[3,2-D]PYRIMIDINE COMPOUNDS AS PROTEIN KINASE INHIBITORS” (Korea Institute of Science and Technology, priority 2009, dated 2011).

T1 sequence (Q05397 whole entry): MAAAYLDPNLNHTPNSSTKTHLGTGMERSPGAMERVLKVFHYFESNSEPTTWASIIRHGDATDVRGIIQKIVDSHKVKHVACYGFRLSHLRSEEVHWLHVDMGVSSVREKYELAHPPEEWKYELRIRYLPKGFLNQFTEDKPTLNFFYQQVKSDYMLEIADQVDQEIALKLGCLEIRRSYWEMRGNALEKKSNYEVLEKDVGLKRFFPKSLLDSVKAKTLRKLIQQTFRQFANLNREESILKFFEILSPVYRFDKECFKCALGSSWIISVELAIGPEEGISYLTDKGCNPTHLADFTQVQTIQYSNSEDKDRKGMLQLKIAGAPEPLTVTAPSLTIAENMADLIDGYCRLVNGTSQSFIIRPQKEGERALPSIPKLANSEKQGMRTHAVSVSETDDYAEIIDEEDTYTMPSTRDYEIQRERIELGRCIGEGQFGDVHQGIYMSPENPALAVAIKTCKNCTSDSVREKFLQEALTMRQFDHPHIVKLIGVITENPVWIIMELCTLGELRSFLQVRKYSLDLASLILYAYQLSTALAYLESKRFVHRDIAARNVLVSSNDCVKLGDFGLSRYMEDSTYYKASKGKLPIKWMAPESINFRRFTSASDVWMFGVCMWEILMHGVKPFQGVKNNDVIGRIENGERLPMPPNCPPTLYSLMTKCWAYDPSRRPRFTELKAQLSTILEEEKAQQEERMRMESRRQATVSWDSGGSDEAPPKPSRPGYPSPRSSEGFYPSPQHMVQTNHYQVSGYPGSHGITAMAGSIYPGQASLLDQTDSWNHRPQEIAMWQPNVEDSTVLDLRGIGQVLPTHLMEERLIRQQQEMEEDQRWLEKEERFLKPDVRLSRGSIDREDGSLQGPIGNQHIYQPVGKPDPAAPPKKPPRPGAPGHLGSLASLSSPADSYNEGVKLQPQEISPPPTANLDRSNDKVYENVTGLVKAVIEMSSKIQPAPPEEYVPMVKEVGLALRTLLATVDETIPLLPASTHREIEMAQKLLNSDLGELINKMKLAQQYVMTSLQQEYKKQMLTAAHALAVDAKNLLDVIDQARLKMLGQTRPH

The term IC50 denotes the point on the concentration scale where inhibition reaches its midpoint. For `CCN1CCN(c2ccc(Nc3ncc4scc(-c5cccc(NS(C)(=O)=O)c5)c4n3)cn2)CC1` [Example 1, N-(3-(2-(6-(4-ethylpiperazin-1-yl)pyridin-3-ylamino)thieno[3,2-d]pyrimidin-7-yl)phenyl)methanesulfonamide], in assay [1], the GI50 was less than 1000 nM. Besides, in assay [2], the IC50 was less than 500 nM. `Cc1ccc(Nc2ncc3scc(-c4cccc(NS(C)(=O)=O)c4)c3n2)cn1` [Example 11, N-(3-(2-(6-methylpyridin-3-ylamino)thieno[3,2-d]pyrimidin-7-yl)phenyl)methanesulfonamide]: the GI50 in assay [1] is less than 1000 nM. For the same molecule, the IC50 in assay [2] is less than 1000 nM. As to `CS(=O)(=O)Nc1cccc(-c2csc3cnc(Nc4ccc(N5CCOCC5)nc4)nc23)c1` [Example 12, N-(3-(2-(6-morpholinopyridin-3-ylamino)thieno[3,2-d]pyrimidin-7-yl)phenyl)methanesulfonamide], the GI50 in assay [1] is less than 1000 nM. Moreover, the IC50 in assay [2] was less than 1000 nM.

Consider `CN(C)CCOc1ccc(Nc2ncc3scc(-c4cccc(NS(C)(=O)=O)c4)c3n2)cn1` [Example 13, N-(3-(2-(6-(2-(dimethylamino)ethoxy)pyridin-3-ylamino)thieno[3,2-d]pyrimidin-7-yl)phenyl)methanesulfonamide], for which the GI50 in assay [1] is less than 1000 nM. Besides, in assay [2], the IC50 was less than 500 nM. For `CCN1CCN(c2ccc(Nc3ncc4scc(-c5cccc(C(=O)NC6CC6)c5)c4n3)cn2)CC1` [Example 25, N-cyclopropyl-3-(2-(6-(4-ethylpiperazin-1-yl)pyridin-3-ylamino)thieno[3,2-d]pyrimidin-7-yl)benzamide], the GI50 in assay [1] was less than 1000 nM. The IC50 in assay [2] was less than 500 nM. Consider `Cc1ccc(Nc2ncc3scc(-c4cccc(C(=O)NC5CC5)c4)c3n2)cn1` [Example 26, N-cyclopropyl-3-(2-(6-methylpyridin-3-ylamino)thieno[3,2-d]pyrimidin-7-yl)benzamide], for which the IC50 in assay [2] was less than 10000 nM. Consider `O=C(NC1CC1)c1cccc(-c2csc3cnc(Nc4ccc(N5CCOCC5)nc4)nc23)c1` [Example 27, N-cyclopropyl-3-(2-(6-morpholinopyridin-3-ylamino)thieno[3,2-d]pyrimidin-7-yl)benzamide], for which, in assay [1], the GI50 was less than 1000 nM. Further, the IC50 in assay [2] was less than 500 nM.

For `CCN1CCN(c2ccc(Nc3ncc4scc(-c5cnc6ccccc6c5)c4n3)cn2)CC1` [Example 30, N-(6-(4-ethylpiperazin-1-yl)pyridin-3-yl)-7-(quinolin-3-yl)thieno[3,2-d]pyrimidin-2-amine], the GI50 in assay [1] was less than 1000 nM. Besides, the IC50 in assay [2] was less than 500 nM. For `CN(c1ncccc1CNc1nc(Nc2ccc3c(c2)CC(=O)N3)ncc1C(F)(F)F)S(C)(=O)=O` [PF-562271], the “inhibition of tumor growth or tumor degeneration” value in assay [3] is 42-90%. Consider `CNC(=O)c1ccccc1Nc1nc(Nc2ccc(N3CCOCC3)cc2OC)ncc1Cl` [TAE226], for which, in assay [4], the tumor reduction is on record as 85-97%.
